Source: patent US4328215A, “Method of reducing or avoiding the mutagenic activity of drugs” (The Johns Hopkins University, priority 1977, dated 1982)
Like-named read-outs stand apart in the source and are kept apart here. Where a SMILES comes first, the peptide text is derived from it. Bridges are numbered along the chain shown (N, C = ends). [ ]: non-standard residue; d: D form. The star is where a group is joined. Ileψ(thiazoline)Cys = CC[C@H](C)[C@H](N)C1=N[C@H](C(=O)*)CS1; dOrn = NCCC[C@@H](N)C(=O)O

How the values were obtained:
intestinal bacteria = assay: Effect on intestinal bacterial flora of mice; format: in vivo
Protocol: […] Homogenates of these organs were made with 10 ml nutrient broth (Difco) and serial dilutions were plated on nutrient agar plates. Obligatory anaerobic bacteria were counted in the same manner except that the organs were homogenized in thioglycolate (Difco) medium and the agar plates were incubated in anaerobic jars. The plates were counted after incubation for 24 hours at 37° C. There were no significant differences in counts when the incubation time was extended for 48 hours. Six mice were used for each time interval.

[1] = ampicillin administered; cited from earlier work
[2] = monkeys; oxamniquine alone; cited from earlier work
[3] = mice; oxamniquine alone; cited from earlier work
[4] = Mutagenic metabolite of oxamniquine in urine of mice; format: in vivo; details: mixture of erythromycin, bacitracin and succinyl sulfathiazole
Excerpt: Ir also is used, though to a lesser extent, in Africa and the Mid-east for the treatment of schistosomiasis mansoni.

CC[C@H](C)[C@H](N)C1=N[C@H](C(=O)N[C@@H](CC(C)C)C(=O)N[C@H](CCC(=O)O)C(=O)N[C@H](C(=O)N[C@H]2CCCCNC(=O)[C@H](CC(N)=O)NC(=O)[C@@H](CC(=O)O)NC(=O)[C@H](Cc3cnc[nH]3)NC(=O)[C@@H](Cc3ccccc3)NC(=O)[C@H]([C@@H](C)CC)NC(=O)[C@@H](CCCN)NC2=O)[C@@H](C)CC)CS1 [Bacitracin] ({Ileψ(thiazoline)Cys}-L[dE]IK[dOrn]I[dF]H[dD]N; lactam 4-C)
Host-mediated assay, revertants per 10^8 bacteria, controls (no CGP 4540) (S. typhimurium TA 100; bacitracin alone, 220 mg/kg, mice): 64(±9) revertants per 10^8 bacteria | Host-mediated assay, revertants per 10^8 bacteria, controls (no CGP 4540) (S. typhimurium TA 100; bacitracin alone, 440 mg/kg, mice): 71(±5) revertants per 10^8 bacteria

CC[C@H]1OC(=O)[C@H](C)[C@@H](O[C@H]2C[C@@](C)(OC)[C@@H](O)[C@H](C)O2)[C@H](C)[C@@H](O[C@@H]2O[C@H](C)C[C@H](N(C)C)[C@H]2O)[C@](C)(O)C[C@@H](C)C(=O)[C@H](C)[C@@H](O)[C@]1(C)O [Erythromycin]
Number of aerobes in the large intestine (intestinal bacteria; erythromycin base 100 mg/kg single oral dose, large intestine, aerobes): little, if any, change | Number of anaerobes in the large intestine (intestinal bacteria; erythromycin base 100 mg/kg single oral dose, large intestine, anaerobes): little, if any, change | Total number of aerobic bacteria in the small intestine (intestinal bacteria; erythromycin base 100 mg/kg single oral dose, small intestine, aerobes): only a moderate reduction, of relatively short duration | Anaerobic bacteria in the small intestine (intestinal bacteria; erythromycin base 100 mg/kg single oral dose, small intestine, anaerobes): reduced to an even lesser extent than were aerobes | Host mediated assay, revertants per 10^8 bacteria, controls (no CGP 4540) (S. typhimurium TA 100; antibiotic alone, 100 mg/kg oral, mice): 65 (±4) revertants per 10^8 bacteria

O=C(O)CCC(=O)Nc1ccc(S(=O)(=O)Nc2nccs2)cc1 [Succinylsulfathiazole]
Bacterial flora of the host's intestines (intestinal bacteria; 1 g/kg once daily for 3 successive days, oral): reduces the bacterial flora | Host-mediated assay, revertants per 10^8 bacteria, controls (no CGP 4540) (S. typhimurium TA 100; in vivo): 62(±5) revertants per 10^8 bacteria

C[N+]([O-])=NCO[C@@H]1O[C@H](CO)[C@@H](O)[C@H](O)[C@H]1O [cycasin]
Formation of the aglycone after administration of ampicillin [1]: prevented

CC(C)NCC1CCc2cc(CO)c([N+](=O)[O-])cc2N1 (stereo not shown) [oxamniquine]
Mutagenic metabolite in urine [2]: gives rise to the appearance of a mutagenic metabolite in the urine | Mutagenic metabolite in urine [3]: gives rise to the appearance of a mutagenic metabolite in the urine | Appearance of the mutagenic metabolite with coadministered antibacterial agents [4]: completely eliminates the appearance of the mutagenic metabolite
